Results as given in patent publication US20240382480A1, “PHARMACEUTICAL COMPOSITION CONTAINING JAK3/JAK1/TBK1 SELECTIVE INHIBITOR AND MEDICAL USE THEREOF” (SHENZHEN CHIPSCREEN BIOSCIENCES CO., LTD., priority 2021, published 2024).

Tests used:
Format in all cases: in vivo
[1] = test system: Balb/c mice; test: DNCB-induced atopic dermatitis model in mice, oral gavage; details: 50 mg/kg twice a day oral gavage, vs model group
Experimental: Drug preparation: appropriate amount of powder of sample for test was weighed accurately and put in a sample preparation tube. Purified water was added and sonication was performed until the sample was completely dissolved, and a concentration of 5 mg/ml (based on active ingredient) was prepared, and it was administered within 15 minutes after preparation.
Experimental animals: Balb/c mice were purchased from Sichuan Academy of Traditional Chinese Medicine, 27 mice in total.
Grouping: Balb/c mice (27 mice in total) were randomly divided into three groups, 9 mice in each group, which were blank group, model group and administration group respectively.
Modeling: 300 μl of 1% DNCB was applied to the abdomen of mice in the model group and administration group, and 0.5% DNCB was applied to the ears every other day after 7 d, and lasted for 31 days.
Administration: administration was carried out after 12 days of modeling. Administration group: dosage and frequency of administration: 50 mg/kg (based on active ingredient), twice a day. Model group: the same dose of vehicle was given. The administration cycle was 3 weeks (12 d-31 d). The method of administration: oral gavage.
• (1) General observation: ear thickness and spleen/body weight ratio. At the end point of the test, the body weight of mice was weighed, and the left and right ear thickness (mm) of mice was measured, and then the mice were subjected to gross anatomy, and the spleen of mice was weighed to calculate the spleen/body weight ratio of mice. • (2) Serum: IgE. At the end point of the test, blood was collected from the orbit of mice, and the total IgE in the serum of mice was detected (ELISA method). • (3) Histopathology: HE staining of the ear (to measure ear epidermal thickness) and toluidine blue staining (to measure the number of mast cells in the ear epidermis).
HE staining of ears: the fixed mouse ear tissue was dehydrated by automatic dehydrator and embedded, and then sliced. After dewaxing the slices to water, hematoxylin staining was performed until blue appeared; after elution, eosin staining was performed for sealing, and finally microscopy and image acquisition were carried out.
The above specimens were subjected to the procedures of dehydration, trimming, embedding, slicing, staining, sealing, and other procedures, and finally microscopy and image acquisition were carried out.

[2] = test system: C57BL/6J mice with alopecia areata; test: Alopecia areata mouse model, oral gavage; details: 80 mg/kg twice a day oral gavage for 23 d
Experimental: Drug preparation: appropriate amount of powder of test sample was weighed accurately and put in a sample preparation tube, then add purified water was added and sonification was performed until the sample was completely dissolved. A concentration of 8 mg/ml (based on active ingredient) was prepared, and it was administered within 15 minutes after preparation.
Experimental animals: 16 C57BL/6J mice with alopecia areata, female, 12 weeks old. They were purchased from Beijing Vital River Laboratory Animal Technology Co., Ltd. Animal inclusion criteria: mice with patchy and traceless hair loss, mainly with back hair loss and head hair loss.
Grouping and criteria: 14 C57BL/6J mice were enrolled in the groups, and 5 mice in the model group, 9 mice in the administration group (test sample). The overall situation of hair loss in the administration group was more serious than that in the model group.
Administration information: administration group: single dose: 80 mg/kg (based on active ingredient) twice a day for 23 d continuously; model group: equal doses of vehicle given. Method of administration: oral gavage.
Record of change rate of body weight and alopecia areata area: measured twice a week, weighed and observed with naked eyes on Monday and Thursday.
Spleen size and weight: at the end of the test, the body weight of mice was weighed, and then the mice were subjected to gross anatomy, the spleen of the mice was observed and weighed to calculate the spleen/body weight ratio of mice.

[3] = test system: normal animals; test: Spleen weight in normal animals; details: no dose or method printed
[4] = end point, vs model group, p<0.05

C=CC(=O)N(C)c1cc(Nc2ncc(Cl)c(NCCCNC(=O)c3ccc(C#N)cc3)n2)ccc1F [test sample, N-(3-((5-chloro-2-((4-fluoro-3-(N-methylacrylamido)phenyl)amino)-4-pyrimidinyl)amino)propyl)-4-cyanobenzamide]
spleen/body weight ratio ([1]; 3 weeks (12 d-31 d), end point, # p<0.05): significantly reduced
ear epidermal thickness ([1]; 3 weeks, HE staining, # p<0.05): significantly decreased
serum IgE level ([1]; 3 weeks, end point, ELISA, ## p<0.01): significantly decreased
ear thickness (including the left ear and the right ear) ([1]; 3 weeks, end point, # p<0.05): significantly reduced
number of mast cells in ear epidermis ([1]; 3 weeks, toluidine blue staining, # p<0.05): significantly decreased
spleen weight [2, 4]: significantly lower
spleen/body weight ratio [2, 4]: significantly lower
alopecia areata area ([2]; better than model group (vehicle), p<0.01): significantly ameliorated
weight of spleen in normal animals [3]: does not reduce the weight of spleen
